No end group written: not given here.
Target: T1, Vps4p^∆N (lacks the MIT domain and linker; residues 101–437) (Saccharomyces cerevisiae, UniProt P52917)
T1 sequence (P52917 101-437): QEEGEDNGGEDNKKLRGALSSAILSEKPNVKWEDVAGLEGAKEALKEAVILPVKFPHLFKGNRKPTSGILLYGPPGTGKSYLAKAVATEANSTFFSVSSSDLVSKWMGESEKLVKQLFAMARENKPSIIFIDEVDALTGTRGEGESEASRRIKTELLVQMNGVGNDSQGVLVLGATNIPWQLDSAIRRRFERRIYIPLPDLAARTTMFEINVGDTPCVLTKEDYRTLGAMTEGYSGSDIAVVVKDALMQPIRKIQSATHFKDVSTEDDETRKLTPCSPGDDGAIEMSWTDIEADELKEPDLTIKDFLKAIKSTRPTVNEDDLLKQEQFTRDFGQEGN
T1 sequence (Q06263 280-330 partner limits assumed): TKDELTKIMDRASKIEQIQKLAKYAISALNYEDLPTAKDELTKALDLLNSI
Test: Fluorescence polarization peptide binding assay to Vps4p^∆N
Parameters: species or system S. cerevisiae
Conditions: ratio of affinities

## EKEKEKEK-NH2 [(EK)4]
  Fold tighter binding than (KE)4: 6 fold

— publication PMC12254338 (Scientific Reports, 2025)
